Key:
[1] = test system: healthy adults; test: Phase 1 trials, waking EEG; type: in vivo, human
[2] = test system: insomnia patients; test: Phase 2 trial, measurements of sleep maintenance versus placebo; type: in vivo, human
Description: The data from the APD125 Phase 2 study are consistent with Phase 1 data and support further development of APD125 for the treatment of insomnia patients who have difficulty maintaining sleep.

[3] = test system: normal volunteers; test: Afternoon nap model of insomnia in normal volunteers; type: in vivo, human
Description: APD125, a potent and selective 5-HT2A serotonin receptor inverse agonist is a member of the genus disclosed in the European Patent EP1558582. […] Sleep onset latency was not decreased by APD125. In the afternoon nap model, APD125 decreased microarousals, the number of sleep stage shifts, and number of awakenings after sleep onset.

[4] = test system: diabetic rats; details: cited from earlier work
[5] = test system: DOCA-salt induced hypertension; details: rats; cited from earlier work
[6] = test system: JC virus; details: cited from earlier work
[7] = test system: glaucoma patients; details: cited from earlier work
[8] = target: 5-HT2A (Homo sapiens, UniProt P28223); details: cited from earlier work
[9] = test system: heatstroke; details: in vivo; cited from earlier work
[10] = test system: spontaneously hypertensive rats; details: cited from earlier work
[11] = test system: thermal induced pain; details: rats, intraperitoneal administration; cited from earlier work
[12] = test system: inflammatory pain; details: rats, intrathecal or intraperitoneal administration; cited from earlier work
[13] = test system: diabetic nephropathy; details: 24 months of treatment; cited from earlier work
[14] = test system: lumbar disc herniation; details: humans; cited from earlier work

5-HT2A, sequence (P28223 whole entry, species assumed): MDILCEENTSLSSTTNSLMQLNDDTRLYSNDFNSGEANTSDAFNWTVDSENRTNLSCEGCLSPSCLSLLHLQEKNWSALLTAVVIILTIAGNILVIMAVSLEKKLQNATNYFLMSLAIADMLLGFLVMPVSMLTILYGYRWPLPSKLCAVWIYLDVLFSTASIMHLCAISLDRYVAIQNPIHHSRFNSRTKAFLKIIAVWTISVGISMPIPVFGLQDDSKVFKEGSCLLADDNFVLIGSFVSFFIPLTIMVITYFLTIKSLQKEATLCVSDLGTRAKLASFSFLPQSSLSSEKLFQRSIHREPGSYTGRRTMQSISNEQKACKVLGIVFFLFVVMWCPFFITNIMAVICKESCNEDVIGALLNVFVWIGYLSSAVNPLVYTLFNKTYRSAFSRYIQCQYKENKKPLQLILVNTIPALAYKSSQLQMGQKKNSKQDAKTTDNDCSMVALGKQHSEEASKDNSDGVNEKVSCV

## COc1ccc(NC(=O)Nc2ccc(F)cc2F)cc1-c1c(Br)cnn1C [APD125]
[1]
  dose of maximal vigilance-lowering effects on waking EEG: 40 to 80 mg
  effects on waking EEG: vigilance-lowering effects on waking EEG
[1]; after dosing
  time of peak effects after dosing: 2 to 4 h
[2]; Phase 2
  next day cognitive effects: without any limiting next day cognitive effects
[2]; Phase 2, compared to placebo
  measurements of sleep maintenance: statistically significant improvements
[3]; afternoon nap model
  REM sleep: at the expense of REM sleep
  microarousals: decreased
  number of awakenings after sleep onset: decreased
  number of sleep stage shifts: decreased
  sleep onset latency: not decreased
[3]; primarily during the early part of sleep
  slow wave sleep and associated parameters: increased slow wave sleep and associated parameters in a dose-dependent manner

## O=CN1CCC(C(=O)NCCN2CCC(=C3c4ccccc4C=Cc4ccccc43)CC2)CC1 [AT-1015]
[4]
  14.9% reduction in saphenous sensory conduction velocity: completely reversed
  44.7% reduction in sciatic endoneurial blood flow: completely reversed

## CN1CCN2c3ccccc3Cc3ccccc3C2C1 (stereo not drawn) [Mainserin]
[5]
  DOCA-salt induced hypertension: prevent

## O=C(c1ccc(F)cc1)C1CCN(CCn2c(=O)[nH]c3ccccc3c2=O)CC1 [ketanserin]
[6]
  JC virus infection of human glial cells: inhibited
[7]
  IOP: significantly lower
[8]
  inverse agonist activity at 5-HT2A: have inverse agonist activity
[9]
  protection during heatstroke: protect against circulatory shocks, intracranial hypertension, and cerebral ischemia
[10]
  blood pressure: stabilize blood pressure

## Cc1nc2sccn2c(=O)c1CCN1CCC(=C(c2ccc(F)cc2)c2ccc(F)cc2)CC1 [ritanserin]
[6]
  JC virus infection of human glial cells: inhibited
[4]
  14.9% reduction in saphenous sensory conduction velocity: completely reversed
  44.7% reduction in sciatic endoneurial blood flow: completely reversed
[8]
  inverse agonist activity at 5-HT2A: have inverse agonist activity

## COc1cccc(CCc2ccccc2OCC(CN(C)C)OC(=O)CCC(=O)O)c1 (stereo not drawn) [sarpogrelate]
[11]
  analgesic effect on thermal induced pain: significant analgesic effect
[12]
  analgesic effect on inflammatory pain: significant analgesic effect
[4]
  14.9% reduction in saphenous sensory conduction velocity: completely reversed
  44.7% reduction in sciatic endoneurial blood flow: completely reversed
[7]
  IOP: significantly lower
[13]
  urinary albumin excretion level: significantly reduced
[14]
  lower back pain, leg pain and numbness associated with sciatica: effective treatment

From patent US10787437B2, “Processes for the preparation of pyrazole derivatives useful as modulators of the 5-HT2A serotonin receptor” (Arena Pharmaceuticals, Inc., priority 2008, dated 2020)
